Data reported in PMC8747069, “Sesquiterpene Lactones with Dual Inhibitory Activity against the Trypanosoma brucei Pteridine Reductase 1 and Dihydrofolate Reductase” (Molecules, 2021).
Read-outs that look alike come from different tables or passages of the source.

How the values were obtained:
TbDHFR = TbDHFR (Trypanosoma brucei brucei, UniProt Q27783); test: Spectrophotometric inhibition assay with recombinant TbDHFR; format: biochemical; details: for TbDHFR Inhibition at 50 µM (%) / inhibition at 50 µM: NADPH 150 µM, DHF 50 µM
Procedure: Kinetic analysis of TbDHFR was performed according to 4.5. All measurements were carried out as triplicates using buffer B (50 mM Tris/HCl (pH 7.6), 250 mM NaCl, 10 mM BME).
(§1) The concentration of TbDHFR was 0.04 mg/mL with a specific activity of 38.1 U/mg. All experiments were carried out using the saturating concentrations of dihydrofolate (DHF, 50 µM) and NADPH (150 µM). The diagrams for the determination of the saturating conditions are depicted in the Supplementary Materials Figure S16.
(§2) All measurements were carried out as duplicates and compared with a reference containing no inhibitor. The reference measurements were used to determine the full catalytic activity of the respective enzyme (100%), and the relative catalytic activity of all following measurements including inhibitors was calculated accordingly.
(§3) The compounds that were able to inhibit the activity of TbPTR1 or TbDHFR ≥ 50% in the single concentration assays were further investigated by the determination of their half maximal inhibitory concentration (IC50), including at least five inhibitor concentrations. If a complete inhibition of the enzyme could not be achieved experimentally due to the given assay conditions, the half maximal effective concentration (EC50) was determined instead. All measurements were carried out as triplicates against a reference containing no inhibitor at saturating conditions (Section 4.8.). The documented enzyme activity was analysed by nonlinear regression using GraphPad Prism 8 (GraphPad Software Inc., La Jolla, CA, USA).

T. brucei rhodesiense = details: in vitro growth inhibition; cited from earlier work
TbPTR1 = molecular target: T1, TbPTR1 (Trypanosoma brucei brucei, UniProt O76290); test: Spectrophotometric inhibition assay with recombinant TbPTR1; format: biochemical; details: for inhibition at 100 µM: read-out: TbPTR1 Inhibition at 100 µM (%); for EC50: EC50 reported because complete inhibition not reached (solubility issues), read-out: TbPTR1 EC50 (footnote a in IC50 column)
T1 sequence (O76290 1-268): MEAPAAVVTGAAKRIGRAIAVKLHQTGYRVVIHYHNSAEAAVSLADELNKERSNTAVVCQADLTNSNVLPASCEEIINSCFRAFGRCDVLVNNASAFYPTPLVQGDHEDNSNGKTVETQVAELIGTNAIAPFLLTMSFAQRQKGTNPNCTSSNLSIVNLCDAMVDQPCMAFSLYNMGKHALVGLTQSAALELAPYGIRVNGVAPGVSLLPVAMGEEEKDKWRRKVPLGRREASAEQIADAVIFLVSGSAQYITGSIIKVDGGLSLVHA
Procedure: The concentration and the activity of TbPTR1, as well as the saturating conditions of its substrate and co-substrate were determined by monitoring the oxidation of the co-substrate NADPH to NADP^+ via UV/Vis spectroscopy (Hitachi U-2900, Tokyo, Japan). […] The experiments were carried out as triplicates using buffer A (50 mM Tris/HCl (pH 7.6), 250 mM NaCl).
as §1, with “TbPTR1” for “TbDHFR”, “3.23 mg/mL. Its” for “0.04 mg/mL with a”, “was calculated to be 0.03” for “of 38.1”, “folic acid (8” for “dihydrofolate (DHF, 50”, “S15.” for “S16.”
as §2, §3

T. brucei = tested on: T. brucei; design: method as in PMID 22331812; details: acute mouse model; cited from earlier work
[1] = 100 µM compound, NADPH 150 µM, folic acid 8 µM
[2] = 50 µM compound, read-out: TbDHFR Inhibition at 50 µM (%)

Chain of TbDHFR (Q27783 28-238 limits assumed): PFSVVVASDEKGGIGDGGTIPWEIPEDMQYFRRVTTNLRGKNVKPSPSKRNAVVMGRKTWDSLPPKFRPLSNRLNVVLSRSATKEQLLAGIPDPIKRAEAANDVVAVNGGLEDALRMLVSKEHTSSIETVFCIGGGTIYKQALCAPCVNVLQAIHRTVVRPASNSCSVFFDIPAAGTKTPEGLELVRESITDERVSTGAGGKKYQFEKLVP

SMILES	inhibition at 100 µM (TbPTR1; [1]) [%]	inhibition at 50 µM (TbDHFR; [2]) [%]	IC50 (T. brucei rhodesiense) [nM]	also measured
C=C(CO)C(=O)O[C@H]1CC(=C)[C@@H]2C[C@H](O)C(=C)[C@@H]2[C@H]2OC(=O)C(=C)[C@@H]21 [Compound 2, cynaropicrin]	–	–	300	in vivo activity against the parasite (T. brucei): in vivo activity against the parasite; IC50 (TbDHFR): 7100 nM; IC50 (TbPTR1): 12400 nM; inhibition at 100 µM (TbPTR1): 92.1%
C=C1C(=O)O[C@@H]2/C=C(/CO)C3=CC(=O)[C@@](C)(C[C@@H](OC(=O)/C(C)=C\C)[C@@H]12)O3 [Compound 4]	79.9	34.9	100	IC50 (TbPTR1): 30500 nM
C=C1C(=O)OC2C=C(C)C(O)CC=C(C)CC(OC(=O)C(=CCOC(=O)C(O)C(C)CC)CO)C12 (stereo not shown) [Compound 10]	26.7	20.1	4000	–
C=C1C(=O)O[C@@H]2/C=C(\CO)CC/C=C(\C)C[C@H](OC(=O)C(=C)[C@H](O)CO)[C@@H]12 [Compound 1, cnicin]	63.9	15.2	400	EC50 (TbPTR1): 21200 nM
C=C1C(=O)O[C@@H]2/C=C(\C)C[C@H](O)/C=C(\C)C[C@@H](OC(=O)/C(=C\C)COC(C)=O)[C@@H]12 [Compound 7]	–	–	1600	inhibition at 50 µM (TbDHFR; read-out: TbDHFR Inhibition at 50 µM (%), 50 µM compound): 48.7%; inhibition at 100 µM (TbPTR1): 25.6%

More lines, main results first:

inhibition at 100 µM (TbPTR1; [1]) [%]	inhibition at 50 µM (TbDHFR; [2]) [%]	SMILES	IC50 (T. brucei rhodesiense) [nM]	also measured
58.1	–	C=C1C(=O)OC2C=C(C)C(OC(C)=O)CC=C(C)CC(OC(=O)C(=CCO)CO)C12 (stereo not shown) [Compound 5, (Z)-eucannabinolide]	1700	TbDHFR Inhibition at 50 µM (%) (TbDHFR; 50 µM compound): No TbDHFR inhibition could be detected and n.i.; EC50 (TbPTR1): 31500 nM
33.1	–	C=C1C(=O)OC2C=C(C)C(OC(=O)C(O)C(C)C)CC=C(C)CC(OC(=O)C(=CCO)CO)C12 (stereo not shown) [Compound 6]	800	TbDHFR Inhibition at 50 µM (%) (TbDHFR; 50 µM compound): n.i.
28.5	95.9	C=C1C(=O)OC2C=C(C)C(O)CC=C(C)CC(OC(=O)C(=CCOC(=O)C(O)C(C)C)CO)C12 (stereo not shown) [Compound 9]	2600	–
73.1	> 50	C=C1C(=O)OC2C1CC(OC(=O)C(C)C(C)O)C(C)=CCCC1(C)OC21 (stereo not shown) [Compound 3]	1300	IC50 (TbDHFR; saturating conditions, nonlinear regression, read-out: TbDHFR IC50): 13300 nM; IC50 (TbPTR1; saturating conditions, nonlinear regression, read-out: TbPTR1 IC50): 40500 nM
14.2	40.7	C=C1C(=O)O[C@H]2[C@H]1[C@H](OC(=O)/C(=C/COC(=O)C(O)C(C)C)CO)C[C@]1(C)[C@@H]2[C@H](C)C(=O)C[C@H]1O (stereo partly shown) [Compound 8]	2700	–
